Assay [1] deals with HBV (genotype D, serotype ayw, Galibert's strain). As to the kind of experiment: Quantification of virion associated secreted HBV DNA in supernatant of HBV-infected differentiated HepaRG (dHepaRG) cells by qPCR, % of replication vs DMSO. Type of assay: cell-based, hepatitis B virus. To be noted: 1 μM compound, 7 days treatment, DMSO = 100%; for activity at 1 µM: Hepatitis B virus, HepaRG, 168 h, read-out: dHepaRG HBV % of replication at 1 μM compared to DMSO. The protocol:
(§1) From Methods in Lucifora J. et al. (Direct antiviral properties of TLR ligands against HBV replication in immune-competent hepatocytes, Science Scientific Reports, 2018, 8:5390): • 1) HepaRG cells were cultured, as described previously by Gripon P. et al. (Infection of a human hepatoma cell line by hepatitis B virus. Proc Natl Acad Sci USA, 2002, 99, p 15655-15660) on pages 15655 and 15656, in Williams E medium supplemented with 10% fetal calf serum, 50 U penicillin/streptomycin (Gibco-Invitrogen) ml^−1, […] ml^−1 and 5×10^−7 M hydrocortisone hemisuccinate (Roche Diagnostics and Boehringer Mannheim, respectively). The cell cultures were maintained in a 5% CO2 atmosphere at 37° C. During the proliferation phase, culture medium was renewed every 2 days. For differentiation and infection, cells were maintained for 2 weeks in standard medium and then for at least 2 more weeks in medium supplemented with 1.8-2.0% DMSO (Sigma). • 2) Primary Human Hepatocytes (PHH) were freshly prepared from human liver resection as previously described by Lecluyse, E. L. & Alexandre, E. (Isolation and culture of primary hepatocytes from resected human liver tissue. Methods Mol Biol, 2010, 640, p 57-82, https://doi.org/10.1007/978-1-60761-688-7_3) on page 63 paragraph 3. “Methods” from section 3.1. through 3.6.2. page 77. All experimental procedures were conducted in conformity with French laws and regulations and were approved by the National Ethics Committee. • 3) Cell viability was measured by both neutral red and MTS (CellTiter 96 Aqueous One Solution cell proliferation assay; Promega) tests. • 4) HBV inoculum (genotype D, serotype ayw, Galibert's strain referred as NC_003977.2 at NCBI) was prepared from HepAD38 (see Ladner, S. K. et al., Inducible expression of human hepatitis B virus (HBV) in stably transfected hepatoblastoma cells: a novel system for screening potential inhibitors of HBV replication. Antimicrob Agents Chemother, 1997, 41, p 1715-1720) supernatants by polyethylene-glycol-MW-8000 (PEG8000, SIGMA) precipitation (8% final) as previously described by Luangsay, S. et al. (Early inhibition of hepatocyte innate responses by hepatitis B virus. J Hepatol, 2015, 63, p 1314-1322, https://doi.org/10.1016/j.jhep.2015.07.014).
(§2) Viral stocks with titer reaching at least 1×10^10 viral genome equivalent (vge)/mL were tested endotoxin free.
(§3) Differentiated HepaRG (dHepaRG) or PHH were infected by HBV at a multiplicity of infection of 100-200 vge/cell in culture medium containing 4% PEG 8000 (Sigma) for 16 h at 37° C. in 12- or six-well plates. At the end of the incubation period, cells were washed once with medium and then cultured in Williams E medium containing DMSO as indicated. In general infection was left for 7 days before any treatment was started, to allow replication reaching its maximum. • 5) Infected cell treatment with compounds of interest: • 5a: After 7 days of infection with the virus (day 0 to day 7), the dHepaRG cells were treated (3 treatments: day 7, day 10 and day 12) with a […] of the tested compound (diluted with sterile water from a 10 mM stock DMSO solution) or DMSO as reference negative control for 7 more days. • 5b: After 4 days of infection with the virus (day 0 to day 4), the PHH cells were treated (3 treatments: day 4, day 7 and day 9) with a […] of the tested compound (diluted with sterile water from a 10 mM stock DMSO solution) for 7 more days. • 6) Quantification of virion associated secreted HBV DNA in cell culture supernatant:
(§4) At the end of the experiment (7 days treatment) the supernatant of infected and treated cells (either dHepaRG or PHH or others) is collected. It is diluted 1/4 into sterile water (molecular biology quality) then treated for 30 minutes with RNAse (10 unit) and DNAse (10 unit) to remove non encapsidated material. […]

The test system is the same in assay [2]. The assay is described as follows: Quantification of virion associated secreted HBV DNA in supernatant of HBV-infected Primary Human Hepatocytes (PHH) by qPCR, % of replication vs DMSO. Format: cell-based, hepatitis B virus. Particulars: 1 μM compound, 7 days treatment, DMSO = 100%; for activity at 1 µM: Hepatitis B virus, Hepatocyte, 168 h, (*) n = 1, read-out: PHH HBV % of replication at 1 μM compared to DMSO. The protocol:
as §1, §2, §3, §4
A general note: Quantitative PCR measures a nucleic acid by following its amplification.

Some results are limits rather than exact numbers.

Here are results for 19 compounds from patent publication US20260144879A1, “ANTI-VIRAL AND HEPATIC-TARGETED DRUGS” (AI-BIOPHARMA, priority 2019, published 2026).

For the compound `CC(C)OC(=O)CC1COP(=O)(CO[C@H](C)Cn2cnc3c(NC(=O)C(C)C)ncnc32)OC1` (stereo partly drawn) [Example 21a, (R)-isopropyl 2-(2-(((1-(6-isobutyramido-9H-purin-9-yl)propan-2-yl)oxy)methyl)-2-oxido-1,3,2-dioxaphosphinan-5-yl)acetate], the activity at 1 µM in assay [1] and in assay [2] was ≤ 30% in each case.
For `COC(=O)CCC1COP(=O)(CO[C@H](C)Cn2cnc3c(N)ncnc32)OC1` (stereo partly drawn) [Example 6, (R)-methyl 3-(2-(((1-(6-amino-9H-purin-9-yl)propan-2-yl)oxy)methyl)-2-oxido-1,3,2-dioxaphosphinan-5-yl)propanoate], the values for the activity at 1 µM in assay [1] and in assay [2] were 50 to 80% and > 80%, respectively.
Regarding `CC(C)OC(=O)CC1COP(=O)(CO[C@H](C)Cn2cnc3c(N)ncnc32)OC1` (single isomer, unassigned) [Example 3a], the activity at 1 µM in assay [1] and in assay [2] was ≤ 30% throughout.
For the compound `CC(C)OC(=O)CCC1COP(=O)(CO[C@H](C)Cn2cnc3c(N)ncnc32)OC1` (stereo partly drawn) [Example 8, (R)-isopropyl 3-(2-(((1-(6-amino-9H-purin-9-yl)propan-2-yl)oxy)methyl)-2-oxo-1,3,2-dioxaphosphinan-5-yl)propanoate], the activity at 1 µM in assay [1] and in assay [2] was 50 to 80% each time.
On to `CCOC(=O)CC1COP(=O)(CO[C@H](C)Cn2cnc3c(NC(C)=O)ncnc32)OC1` (stereo partly drawn) [Example 13, (R)-ethyl 2-(2-(((1-(6-acetamido-9H-purin-9-yl)propan-2-yl)oxy)methyl)-2-oxo-1,3,2-dioxaphosphinan-5-yl)acetate], for which the activity at 1 µM is 50 to 80% in assay [1] and ≤ 30% in assay [2].
With `CCOC(=O)CC1COP(=O)(CO[C@H](C)Cn2cnc3c(NC(=O)c4ccccc4)ncnc32)OC1` (stereo partly drawn) [Example 19, (R)-ethyl 2-(2-(((1-(6-benzamido-9H-purin-9-yl)propan-2-yl)oxy)methyl)-2-oxo-1,3,2-dioxaphosphinan-5-yl)acetate], the activity at 1 µM in assay [1] and in assay [2] was ≤ 30% in each case.
On to `CC(C)OC(=O)CCC1COP(=O)(CO[C@H](C)Cn2cnc3c(NC(=O)c4ccccc4)ncnc32)OC1` (stereo partly drawn) [Example 25, (R)-isopropyl 3-(2-(((1-(6-benzamido-9H-purin-9-yl)propan-2-yl)oxy)methyl)-2-oxo-1,3,2-dioxaphosphinan-5-yl)propanoate], for which the activity at 1 µM in assay [1] and in assay [2] was 50 to 80% each time.
Turning to `Nc1ncnc2c1ncn2CCOCP(=O)(O)O` [ADF], in assay [1], the “dHepaRG HBV % of replication at 1 μM compared to DMSO” value was “++ (50% < ++ ≤ 80%)”. Further, in assay [2] ((*) n = 1), the “PHH HBV % of replication at 1 μM compared to DMSO” value is “++ (50% < ++ ≤ 80%)”.
As for `CCOC(=O)CC1COP(=O)(CO[C@H](C)Cn2cnc3c(NC(=O)CC(C)C)ncnc32)OC1` (stereo partly drawn) [Example 17, (R)-ethyl 2-(2-(((1-(6-(3-methylbutanamido)-9H-purin-9-yl)propan-2-yl)oxy)methyl)-2-oxo-1,3,2-dioxaphosphinan-5-yl)acetate], the results for the activity at 1 µM in assay [1] and in assay [2] were 30 to 50% and ≤ 30%, respectively.
Take `C[C@H](Cn1cnc2c(N)ncnc21)OCP1(=O)OCC(CCC(=O)OC2CCCC2)CO1` (stereo partly drawn) [Example 10, (R)-cyclopentyl 3-(2-(((1-(6-amino-9H-purin-9-yl)propan-2-yl)oxy)methyl)-2-oxo-1,3,2-dioxaphosphinan-5-yl)propanoate]: the results for the activity at 1 µM in assay [1] and in assay [2] were 50 to 80% and ≤ 30%, respectively.
The like results for `CCOC(=O)CC1COP(=O)(CO[C@H](C)Cn2cnc3c(NC(=O)C(C)C)ncnc32)OC1` (stereo partly drawn) [Example 16, (R)-ethyl 2-(2-(((1-(6-isobutyramido-9H-purin-9-yl)propan-2-yl)oxy)methyl)-2-oxo-1,3,2-dioxaphosphinan-5-yl)acetate] were, in that order, ≤ 30% and ≤ 30%.
As to `CCCCCCOC(=O)CC1COP(=O)(CO[C@H](C)Cn2cnc3c(N)ncnc32)OC1` (stereo partly drawn) [Example 5b, (R)-hexyl 2-(2-(((1-(6-amino-9H-purin-9-yl)propan-2-yl)oxy)methyl)-2-oxo-1,3,2-dioxaphosphinan-5-yl)acetate], the values for the activity at 1 µM in assay [1] and in assay [2] were 30 to 50% and ≤ 30%, respectively.
On to `COC(=O)CC1COP(=O)(CO[C@H](C)Cn2cnc3c(N)ncnc32)OC1` (stereo partly drawn) [Example 1, (R)-methyl 2-(2-(((1-(6-amino-9H-purin-9-yl)propan-2-yl)oxy)methyl)-2-oxo-1,3,2-dioxaphosphinan-5-yl)acetate], for which the activity at 1 µM in assay [1] and in assay [2] was ≤ 30% each time.
`CCOC(=O)CCC1COP(=O)(CO[C@H](C)Cn2cnc3c(N)ncnc32)OC1` (stereo partly drawn) [Example 7, (R)-ethyl 3-(2-(((1-(6-amino-9H-purin-9-yl)propan-2-yl)oxy)methyl)-2-oxo-1,3,2-dioxaphosphinan-5-yl)propanoate]: the activity at 1 µM in assay [1] and in assay [2] was 50 to 80% throughout.
Take `CC1COP(=O)(CO[C@H](C)Cn2cnc3c(N)ncnc32)OC1` (stereo partly drawn) [Example 5c, (R)-2-(((1-(6-amino-9H-purin-9-yl)propan-2-yl)oxy)methyl)-5-methyl-1,3,2-dioxaphosphinane 2-oxide]: the activity at 1 µM in assay [1] was > 80%; in assay [2] it was 30 to 50%.
Turning to `C[C@H](Cn1cnc2c(N)ncnc21)OCP1(=O)OCC(CC(=O)OC2CCCC2)CO1` (stereo partly drawn) [Example 5, (R)-cyclopentyl 2-(2-(((1-(6-amino-9H-purin-9-yl)propan-2-yl)oxy)methyl)-2-oxo-1,3,2-dioxaphosphinan-5-yl)acetate], the activity at 1 µM in assay [1] and in assay [2] was ≤ 30% throughout.
As to `CCOC(=O)CC1COP(=O)(CO[C@H](C)Cn2cnc3c(NC(=O)CC)ncnc32)OC1` (stereo partly drawn) [Example 15, (R)-ethyl 2-(2-oxo-2-(((1-(6-propionamido-9H-purin-9-yl)propan-2-yl)oxy)methyl)-1,3,2-dioxaphosphinan-5-yl)acetate], the activity at 1 µM in assay [1] and in assay [2] was ≤ 30% in each case.
Turning to `CCOC(=O)CC1COP(=O)(CO[C@H](C)Cn2cnc3c(N(C(C)=O)C(C)=O)ncnc32)OC1` (stereo partly drawn) [Example 14, (R)-ethyl 2-(2-(((1-(6-(N-acetylacetamido)-9H-purin-9-yl)propan-2-yl)oxy)methyl)-2-oxo-1,3,2-dioxaphosphinan-5-yl)acetate], the activity at 1 µM in assay [1] and in assay [2] was 50 to 80% in each case.
In the case of `CCOC(=O)CC1COP(=O)(CO[C@H](C)Cn2cnc3c(N)ncnc32)OC1` (stereo partly drawn) [Example 2, (R)-ethyl 2-(2-(((1-(6-amino-9H-purin-9-yl)propan-2-yl)oxy)methyl)-2-oxo-1,3,2-dioxaphosphinan-5-yl)acetate], the activity at 1 µM in assay [1] and in assay [2] was ≤ 30% in each case.
